# Measurements: US20220062299A1, “USE OF GLUCOCORTICOID STEROIDS IN PREVENTING AND TREATING CONDITIONS OF MUSCLE WASTING, AGING AND METABOLIC DISORDER” (NORTHWESTERN UNIVERSITY, priority 2018, published 2022)
# Assays:
# mdx mice = test: Glycemia monitoring, insulin sensitivity, glucose and pyruvate tolerance tests, adipocyte histology in mdx mice; format: in vivo, mouse
# Procedure: Glucose was measured in blood (first drop from tail venipuncture) or serum (5 μl of 1:2 dilution) with an AimStrip Plus glucometer system (Germaine Laboratories, San Antonio, Tex.) and expressed as mg/dl values. Lactate was measured in blood (second drop from tail venipuncture) or serum (5 μl of 1:2 dilution) with a Lactate Plus reader (Nova Biomedical, Waltham, Mass.) and expressed as mM values. Fasting glycemia was measured in mice after 4 hours fasting (7 AM-11 AM). Glucose, insulin and pyruvate tolerance tests were conducted after 4 hours fasting in individual cages immediately after baseline fasting glucose monitoring. Mice were injected with either 1 g/kg glucose (#D8375-1 g; Millipore Sigma, St Louis, Mo.), or 0.5 U/kg insulin (#12585014; Thermo Fisher, Waltham, Mass.), or 2.5 g/kg pyruvate (#P5280-25 g; Millipore Sigma, St Louis, Mo.) in 200 μl intraperitoneal injections, and glucose was then monitored by tail venipuncture at 10 min, 20 min, 30 min, 60 min, 120 min after injection. All glucose and pyruvate tolerance tests were conducted blinded to treatment groups.
# (§1) Histology. Excised tissues (muscles, omental fat, heart) were placed in 10% formaldehyde (Cat #245-684; Fisher Scientific, Waltham, Mass.) for histologic processing. Seven μm sections from the center of paraffin-embedded muscles were stained with hematoxylin and eosin (H&E; cat #12013B, 1070C; Newcomer Supply, Middleton, Wis.) and Masson's trichrome (Cat #HT-15; Sigma-Aldrich; St. Louis, Mo.). Myofiber/adipocyte CSA quantitation was conducted on 400 myofibers/adipocytes per tissue per mouse. Imaging was performed using a Zeiss Axio Observer A1 microscope, using 10× and 20× (short-range) objectives. Brightfield pictures were acquired via Gryphax software (version 1.0.6.598; Jenoptik, Jena, Germany). Area quantitation was performed by means of ImageJ (Schneider et al., 2012). Sample processing, imaging and CSA quantitation were conducted blinded to treatment groups.
# Dysf-null mice = test: Body weight, muscle mass, muscle function, plethysmography, echocardiography, Dysf-null mice, 32 weeks; format: in vivo, mouse; details: weekly prednisone
# Procedure: as §1
# Muscle function, whole-body plethysmography, echocardiography. Forelimb grip strength was monitored using a meter (Cat #1027SM; Columbus Instruments, Columbus, Ohio) blinded to treatment groups. Animals performed ten pulls with 5 seconds rest on a flat surface between pulls. Immediately before sacrifice, in situ tetanic force from tibialis anterior muscle was measured using a Whole Mouse Test System (Cat #1300A; Aurora Scientific, Aurora, ON, Canada) with a 1N dual-action lever arm force transducer (3000-LR, Aurora Scientific, Aurora, ON, Canada) in anesthetized animals (0.8 I/min of 1.5% isoflurane in 100% O2). […] Time of contraction was assessed as time to max tetanic value within the 0.0-0.5 sec range of each tetanic contraction, while time of relaxation was assessed as time to 90% min tetanic value within the 0.5-0.8 sec range of every tetanus. […] Data was recorded for a total of 15 minutes broken into 3 consecutive 5-minute periods. […] Cardiac function was assessed by echocardiography, which was conducted under anesthesia (0.8 L/min of 1.5% vaporized isoflurane in 100% O2) on mice between 2 and 5 days before sacrifice. […]
smiles,measurement,setting,value
"C[C@]12C=CC(=O)C=C1CC[C@@H]1[C@@H]2C(=O)C[C@@]2(C)[C@H]1CC[C@]2(O)C(=O)CO [prednisone, Prednisone]",adipocyte hypertrophy,mdx mice; daily prednisone,induced adipocyte hypertrophy
same,endpoint glucose and pyruvate tolerance tests,mdx mice; daily prednisone,induced glucose intolerance and pyruvate intolerance
same,glucose homeostasis,mdx mice; daily prednisone,impaired
same,insulin resistance,mdx mice; daily prednisone,induced insulin resistance
same,Glycemia,"mdx mice; daily prednisone, over treatment",progressively increased
same,endpoint glucose tolerance test,mdx mice; weekly prednisone,did not increase glucose intolerance
same,insulin sensitivity,mdx mice; weekly prednisone,higher
same,body weight trend,Dysf-null mice,did not induce significant changes
same,muscle mass,Dysf-null mice,increased
same,"performance of limb muscles, respiratory muscles, and heart",Dysf-null mice,improved
